This is an account of results in patent US20040097594A1 (priority 1998, published 2004).

Each structure is given as a SMILES string. Like-named read-outs stand apart in the source and are kept apart here. Bounds are passed on as bounds.

One experiment deals with HIV-1 protease (Human immunodeficiency virus type 1 group M subtype B, UniProt P04585). Kind of experiment: biochemical.
For the next experiment, the system named is HIV-1 (strain IIIB). The experiment in a line: microbe, parasite or virus in culture. The conditions noted are these: lower line of each compound's entry, read-out: IC50 (MT-4 cells). Format: cell-based.
[1] abbreviates: HIV-1 protease, upper line of each compound's entry, read-out: Ki (enzyme).
[2] abbreviates: Human immunodeficiency virus 1, 120 h, MT4 cells infected with HIV-1 strain IIIB, 5 days.
Setting [3] is: Human immunodeficiency virus 1, IIIB, MT4, 120 h, […].

For the compound `O=C(N[C@@H](Cc1ccccc1)[C@H](O)CN(OC1CCCC1)S(=O)(=O)c1ccc2nc[nH]c2c1)O[C@H]1CO[C@H]2OCC[C@H]21` [Compound 46, (3R,3aS,6aR)hexahydrofuro[2,3-b]furan-3-yl N-(1S,2R)-3-[(1H-benzimidazol-6-ylsulfonyl)(cyclopentyloxy)amino]-1-benzyl-2-hydroxypropylcarbamate], the Ki (commonly the equilibrium dissociation constant of an inhibitor or competing ligand from its target) on HIV-1 protease (setting [1]) was < 1 nM. Besides, the IC50 – broadly, the concentration at which inhibition is half-maximal – with HIV-1 (strain IIIB) (setting [2]) is ≤ 100 nM.
Turning to `COc1ccc(S(=O)(=O)N(C[C@@H](O)[C@H](Cc2ccccc2)NC(=O)O[C@H]2CCOC2)OC2CCCC2)cc1` [Compound 47, (3S)tetrahydro-3-furanyl N-((1S,2R)-1-benzyl-3-(cyclopentyloxy)[(4-methoxyphenyl)sulfonyl]amino-2-hydroxypropyl)carbamate], the Ki on HIV-1 protease (setting [1]) is < 1 nM. Further, the IC50 with HIV-1 (strain IIIB) (setting [2]) was 500 to 1000 nM.
Consider `COc1ccc(S(=O)(=O)N(C[C@@H](O)[C@H](Cc2ccccc2)NC(=O)OC2COCOC2)OC2CCCC2)cc1` [Compound 48, 1,3-dioxan-5-yl N-((1S,2R)-1-benzyl-3-(cyclopentyloxy)[(4-methoxyphenyl)sulfonyl]amino-2-hydroxypropyl)carbamate], for which the inhibitory constant (Ki) on HIV-1 protease (setting [1]) is < 1 nM. Also, the half-inhibitory concentration (IC50) in the experiment on HIV-1 (strain IIIB) (setting [2]) was 100 to 500 nM.
The corresponding values for `NC(=O)C[C@H](NC(=O)c1ccc2ccccc2n1)C(=O)N[C@@H](Cc1ccccc1)[C@H](O)CN(OC1CCCC1)S(=O)(=O)c1cccc(N)c1` [Compound 49, (2S)-N^1-(1S,2R)-3-[[(3-aminophenyl)sulfonyl](cyclopentyloxy)amino]-1-benzyl-2-hydroxypropyl-2-[(2-quinolinylcarbonyl)amino]butanediamide] are < 1 nM and ≤ 100 nM.
As to `COc1ccc(S(=O)(=O)N(C[C@@H](O)[C@H](Cc2ccccc2)NC(=O)[C@H](CC(N)=O)NC(=O)c2ccc3ccccc3n2)OC2CCCC2)cc1` [Compound 50], the Ki at HIV-1 protease (setting [1]) is < 1 nM. For the same compound, the half-inhibitory concentration (IC50) with HIV-1 (strain IIIB) (setting [2]) is ≤ 100 nM.
For the compound `COC(=O)Nc1nc2cc(S(=O)(=O)N(C[C@@H](O)[C@H](Cc3ccccc3)NC(=O)[C@H](CC(N)=O)NC(=O)c3ccc4ccccc4n3)OC3CCCC3)ccc2[nH]1` [Compound 51, (2S)-4-Amino-4-oxo-2-[(2-quinolinylcarbonyl)amino]butanamido N-(1S,2R)-1-benzyl-3-[(cyclopentyloxy)(2-{(methoxycarbonyl)amino]-1H-benzimidazol-5-ylsulfonyl)amino]-2-hydroxypropylcarbamate], on HIV-1 protease (setting [1]), the Ki is < 1 nM. For the same compound, in the experiment on HIV-1 (strain IIIB) (setting [2]), the IC50 fell in the range of 100 to 500 nM.
For the compound `NC(=O)C[C@H](NC(=O)c1ccc2ccccc2n1)C(=O)N[C@@H](Cc1ccccc1)[C@H](O)CN(OC1CCCC1)S(=O)(=O)c1ccc2cn[nH]c2c1` [Compound 52], the Ki on HIV-1 protease (setting [1]) was < 1 nM. For the same compound, in the experiment on HIV-1 (strain IIIB) (setting [2]), the concentration for half-maximal inhibition (IC50) is ≤ 100 nM.
For the compound `COC(=O)Nc1nc2cc(S(=O)(=O)N(C[C@@H](O)[C@H](Cc3ccccc3)NC(=O)O[C@H]3CCOC3)OC3CCCC3)ccc2[nH]1` [Compound 53, (3S)Tetrahydro-3-furanyl N-(1S,2R)-1-benzyl-3-[(cyclopentyloxy)(2-[(methoxycarbonyl)amino]-1H-benzimidazol-5-ylsulfonyl)amino]-2-hydroxypropylcarbamate], on HIV-1 protease (setting [1]), the inhibition constant Ki was < 1 nM. Moreover, in the experiment on HIV-1 (strain IIIB) (setting [2]), the IC50 is ≤ 100 nM.
Turning to `COC(=O)Nc1nc2cc(S(=O)(=O)N(C[C@@H](O)[C@H](Cc3ccccc3)NC(=O)OC3COCOC3)OC3CCCC3)ccc2[nH]1` [Compound 55, 1,3-Dioxan-5-yl N-(1S,2R)-1-benzyl-3-[(cyclopentyloxy)(2-{(methoxycarbonyl)amino]-1H-benzimidazol-5-ylsulfonyl)amino]-2-hydroxypropylcarbamate], at HIV-1 protease (setting [1]), the Ki was < 1 nM. The IC50 in the experiment with HIV-1 (strain IIIB) (setting [2]) was ≤ 100 nM.
The corresponding values for `O=C(N[C@@H](Cc1ccccc1)[C@H](O)CN(OC1CCCC1)S(=O)(=O)c1ccc2[nH]ncc2c1)O[C@H]1CCOC1` [Compound 56, (3S)Tetrahydro-3-furanyl N-(1S,2R)-1-benzyl-3-[(cyclopentyloxy)(1H-indazol-5-ylsulfonyl)amino]-2-hydroxypropylcarbamate] are < 1 nM and 100 to 500 nM.
In the case of `O=C(N[C@@H](Cc1ccccc1)[C@H](O)CN(OC1CCCC1)S(=O)(=O)c1ccc2[nH]ncc2c1)OC1CO[C@H]2OCC[C@@H]12` (stereo partly drawn) [Compound 57, (3aS,6aR)Hexahydrofuro[2,3-b]furan-3-yl N-(1S,2R)-1-benzyl-3-[(cyclopentyloxy)(1H-indazol-5-ylsulfonyl)amino]-2-hydroxypropylcarbamate], at HIV-1 protease (setting [1]), the Ki was < 1 nM. In addition, the IC50 with HIV-1 (strain IIIB) (setting [2]) is ≤ 100 nM.
As for `O=C(N[C@@H](Cc1ccccc1)[C@H](O)CN(OC1CCCC1)S(=O)(=O)c1ccc2cn[nH]c2c1)O[C@H]1CCOC1` [Compound 58, (3S)Tetrahydro-3-furanyl N-(1S,2R)-1-benzyl-3-[(cyclopentyloxy)(1H-indazol-6-ylsulfonyl)amino]-2-hydroxypropylcarbamate], the inhibitory constant (Ki) at HIV-1 protease (setting [1]) is < 1 nM. In addition, the IC50 in the experiment on HIV-1 (strain IIIB) (setting [2]) fell in the range of 100 to 500 nM.
For `O=C(N[C@@H](Cc1ccccc1)[C@H](O)CN(OC1CCCC1)S(=O)(=O)c1ccc2cn[nH]c2c1)OC1CO[C@H]2OCC[C@@H]12` (stereo partly drawn) [Compound 59, (3aS,6aR)Hexahydro[2,3-b]furan-3-yl N-(1S,2R)-1-benzyl-3-[(cyclopentyloxy)(1H-indazol-6-ylsulfonyl)amino]-2-hydroxypropylcarbamate] the same measures were < 1 nM and ≤ 100 nM.
For `O=C(N[C@@H](Cc1ccccc1)[C@H](O)CN(OC1CCCC1)S(=O)(=O)c1ccc2cn[nH]c2c1)OC1COCOC1` [Compound 60, 1,3-Dioxan-5-yl N-(1S,2R)-1-benzyl-3-[(cyclopentyloxy)(1H-indazol-6-ylsulfonyl)amino]-2-hydroxypropylcarbamate] the same measures were < 1 nM and 100 to 500 nM.
Regarding `CC(C)ON(C[C@@H](O)[C@H](Cc1ccccc1)NC(=O)O[C@H]1CCOC1)S(=O)(=O)c1cccc(N)c1` [Compound 61, (3S)tetrahydro-3-furanyl N-(1S,2R)-3-[[(3-aminophenyl)sulfonyl](isopropoxy)amino]-1-benzyl-2-hydroxypropylcarbamate], at HIV-1 protease (setting [1]), the Ki lay within 1 to 10 nM. Further, in the experiment with HIV-1 (strain IIIB) (setting [2]), the IC50 fell in the range of 500 to 1000 nM.
With `CC(C)ON(C[C@@H](O)[C@H](Cc1ccccc1)NC(=O)O[C@H]1CCOC1)S(=O)(=O)c1ccc2[nH]c(=O)[nH]c2c1` [Compound 62, (3S)tetrahydro-3-furanyl N-((1S,2R)-1-benzyl-2-hydroxy-3-isopropoxy[(2-oxo-2,3-dihydro-1H-1,3-benzimidazol-5-yl)sulfonyl]aminopropyl)carbamate], on HIV-1 protease (setting [1]), the inhibitory constant (Ki) fell in the range of 1 to 10 nM. Further, the half-inhibitory concentration (IC50) with HIV-1 (strain IIIB) (setting [2]) is > 1000 nM.
Turning to `COc1ccc(S(=O)(=O)N(C[C@@H](O)[C@H](Cc2ccccc2)NC(=O)O[C@H]2CCOC2)OC2CCCCC2)cc1` [Compound 64, (3S)tetrahydro-3-furanyl N-((1S,2R)-1-benzyl-3-(cyclohexyloxy)[(4-methoxyphenyl)sulfonyl]amino-2-hydroxypropyl)carbamate], the Ki at HIV-1 protease was < 1 nM. Moreover, the half-maximal inhibitory concentration (IC50) in the experiment with HIV-1 (strain IIIB) (setting [2]) was > 1000 nM.
As to `COc1ccc(S(=O)(=O)N(C[C@@H](O)[C@H](Cc2ccccc2)NC(=O)[C@H](CC(N)=O)NC(=O)c2ccc3ccccc3n2)OC2CCCCC2)cc1` [Compound 66], at HIV-1 protease, the inhibition constant (Ki) is < 1 nM. Moreover, the IC50 in the experiment with HIV-1 (strain IIIB) (setting [3]) is ≤ 100 nM.
Take `CCC(C)ON(C[C@@H](O)[C@H](Cc1ccccc1)NC(=O)OC1CCOC1)S(=O)(=O)c1ccc(OC)cc1` (stereo partly drawn) [Compound 67, (3S)tetrahydro-3-furanyl N-((1S,2R)-1-benzyl-3-sec-butoxy[(4-methoxyphenyl)sulf-onyl]amino-2-hydroxypropyl)carbamate]: the Ki at HIV-1 protease (setting [1]) was < 1 nM. For the same compound, the half-maximal inhibitory concentration (IC50) in the experiment with HIV-1 (strain IIIB) (setting [2]) lay within 100 to 500 nM.
On to `CCC(C)ON(C[C@@H](O)[C@H](Cc1ccccc1)NC(=O)OC1CO[C@H]2OCC[C@@H]12)S(=O)(=O)c1ccc(OC)cc1` (stereo partly drawn) [Compound 68, (3R,3aS,6aR)hexahydrofuro[2,3-b]furan-3-yl N-((1S,2R)-1-benzyl-3-sec-butoxy[(4-methoxyphenyl)sulfonyl]amino-2-hydroxypropyl)carbamate], for which the inhibition constant (Ki) on HIV-1 protease (setting [1]) was < 1 nM. The half-inhibitory concentration (IC50) with HIV-1 (strain IIIB) (setting [2]) was ≤ 100 nM.
The corresponding values for `CCC(C)ON(C[C@@H](O)[C@H](Cc1ccccc1)NC(=O)OC1COCOC1)S(=O)(=O)c1ccc(OC)cc1` (stereo partly drawn) [Compound 69, 1,3-dioxan-5-yl N-((1S,2R)-1-benzyl-3-sec-butoxy[(4-methoxyphenyl)sulfonyl]amino-2-hydroxypropyl)carbamate] are < 1 nM and 100 to 500 nM.
For `CCC(C)ON(C[C@@H](O)[C@H](Cc1ccccc1)NC(=O)c1cccc(O)c1C)S(=O)(=O)c1ccc(OC)cc1` (some centres unmarked) [Compound 70] the same measures were < 1 nM and > 500 nM.
As for `CCC(C)ON(C[C@@H](O)[C@H](Cc1ccccc1)NC(=O)[C@H](CC(N)=O)NC(=O)c1ccc2ccccc2n1)S(=O)(=O)c1ccc(OC)cc1` (some centres unmarked) [Compound 71], the Ki at HIV-1 protease (setting [1]) was < 1 nM. The half-maximal inhibitory concentration (IC50) in the experiment with HIV-1 (strain IIIB) (setting [3]) is ≤ 100 nM.
`COc1ccc(S(=O)(=O)N(C[C@@H](O)[C@H](Cc2ccccc2)NC(=O)O[C@H]2CCOC2)OC2CCOCC2)cc1` [Compound 72, (3S)tetrahydro-3-furanyl N-(1S,2R)-1-benzyl-2-hydroxy-3-[[(4-methoxyphenyl)sulfonyl](tetrahydro-2H-pyran-4-yloxy)amino]propylcarbamate]: the Ki on HIV-1 protease (setting [1]) was 1 to 10 nM. Further, the IC50 in the experiment on HIV-1 (strain IIIB) (setting [2]) fell in the range of 500 to 1000 nM.
On to `COc1ccc(S(=O)(=O)N(C[C@@H](O)[C@H](Cc2ccccc2)NC(=O)OC2CO[C@H]3OCC[C@@H]23)OC2CCOCC2)cc1` (stereo partly drawn) [Compound 73, (3R,3aS,6aR)hexahydrofuro[2,3-b]furan-3-yl N-(1S,2R)-1-benzyl-2-hydroxy-3-[[(4-methoxyphenyl)sulfonyl](tetrahydro-2H -pyran-4-yloxy)amino]propylcarbamate], for which the inhibitory constant (Ki) on HIV-1 protease (setting [1]) was < 1 nM. Further, the IC50 in the experiment on HIV-1 (strain IIIB) (setting [2]) was ≤ 100 nM.
